From publication PMC6811590, “Solution structure, glycan specificity and of phenol oxidase inhibitory activity of Anopheles C-type lectins CTL4 and CTLMA2” (Scientific Reports, 2019)

Tests used:
CTLMA2 [1] = target: T1, CTLMA2 (Anopheles gambiae, UniProt Q7Q7F8); experiment: SPR steady-state affinity (Biacore T200, protein immobilised on CM5); format: binding; settings: PBS, 1 mM CaCl2, 1 mM MgCl2
T1 construct: gene 1276042; 6xHis-tagged CTLMA2 monomer, secreted from T.ni insect cells (baculovirus, synthetic gene)
T1 sequence (Q7Q7F8 18-174): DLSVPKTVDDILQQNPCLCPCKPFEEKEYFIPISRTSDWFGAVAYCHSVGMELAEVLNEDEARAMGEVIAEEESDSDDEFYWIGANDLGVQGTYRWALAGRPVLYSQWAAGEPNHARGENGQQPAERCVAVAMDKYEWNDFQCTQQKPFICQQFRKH
Source text: SPR steady-state affinity (Biacore T200, protein immobilised on CM5) on CTLMA2

CTL4 = target: T2, CTL4 (Anopheles gambiae, UniProt Q7Q7F7); experiment: as above; format: binding; settings: PBS, 1 mM CaCl2, 1 mM MgCl2
T2 construct: gene 1276043; 6xHis-tagged CTL4 monomer, secreted from T.ni insect cells (baculovirus, synthetic gene)
T2 sequence (Q7Q7F7 25-177): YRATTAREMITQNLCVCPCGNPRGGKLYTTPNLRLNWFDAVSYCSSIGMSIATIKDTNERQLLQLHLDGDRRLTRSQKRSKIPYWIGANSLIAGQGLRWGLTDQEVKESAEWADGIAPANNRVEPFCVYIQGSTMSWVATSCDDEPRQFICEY
Source text: SPR steady-state affinity (Biacore T200, protein immobilised on CM5) on CTL4

CTL4/CTLMA2 [2] = target: T3, CTL4/CTLMA2 (Anopheles gambiae, UniProt Q7Q7F7+Q7Q7F8); experiment: as above; format: binding; settings: PBS, 1 mM CaCl2, 1 mM MgCl2
T3 construct: gene 1276043; disulfide-bridged heterodimer, pFastbac-Dual, C-terminal 6xHis on CTL4 (178-183), secreted from T.ni cells, signal peptides removed; 35 kDa
T3 sequence (Q7Q7F7 25-177): T2 sequence (Q7Q7F7 25-177)
T3 sequence (Q7Q7F8 18-174): T1 sequence (Q7Q7F8 18-174)
Source text: SPR steady-state affinity (Biacore T200, protein immobilised on CM5) on CTL4/CTLMA2

CTL4/CTLMA2 [3] = target: T3, CTL4/CTLMA2; experiment: glycan array, anti-His fluorescence detection; format: binding; settings: PBS, 1 mM CaCl2, 1 mM MgCl2; glycan immobilised through spacer
Source text: glycan array, anti-His fluorescence detection on CTL4/CTLMA2

[4] = tested on: An. gambiae CTL4 (AGAP005335) with C-terminal 6xHis tag, chain of the CTL4/CTLMA2 heterodimer; experiment: non-reducing SDS-PAGE; purified CTL4/CTLMA2 on non-reducing and reducing SDS-PAGE; shows the disulfide-bridged species; settings: other: non-reducing SDS-PAGE
CTLMA2 [5] = target: T1, CTLMA2; experiment: glycan array, anti-His fluorescence detection; format: binding; settings: PBS, 1 mM CaCl2, 1 mM MgCl2; glycan immobilised through spacer
Source text: glycan array, anti-His fluorescence detection on CTLMA2

Molecule | Kd (CTLMA2 [1]) [nM] | Kd (CTL4/CTLMA2 [2]) [µM] | other results
CC(=O)N[C@H]1C(O)O[C@H](CO)[C@@H](O)[C@@H]1O (stereo partly drawn) [113,251, GlcNAc monosaccharide] | 29700 ± 7910 | 21.9 ± 2.8 | Kd (CTL4): 27.9 ± 11.4 µM
CC(=O)N[C@H]1[C@H](O[C@H]2[C@@H](O)[C@@H](CO)O[C@@H](O[C@H]3[C@H](O)[C@@H](O)C(O)O[C@@H]3CO)[C@@H]2O)O[C@H](CO)[C@@H](O[C@@H]2O[C@H](CO)[C@H](O)[C@H](O)[C@H]2O)[C@@H]1O (stereo partly drawn) [383,488, LNnT] |  | 17.6 ± 2.99 | 
O=P(O)(O)OC[C@H]1OC(O)[C@@H](O)[C@@H](O)[C@@H]1O (stereo partly drawn) [compound 47, 6-H2PO3Manα-sp3] |  |  | CTL4/CTLMA2 (CTL4/CTLMA2 [3]): 1.32 fold
CC(=O)N[C@H]1C(O)O[C@H](CO)[C@@H](O[C@@H]2O[C@H](COS(=O)(=O)O)[C@H](O)[C@H](O)[C@H]2O)[C@@H]1O (stereo partly drawn) [compound 163] |  |  | Kd (CTL4): 0.292 ± 0.15 µM
CC(=O)N[C@H]1C(O)O[C@H](CO)[C@@H](O[C@@H]2O[C@@H](C)[C@@H](O)[C@@H](O)[C@@H]2O)[C@@H]1O[C@@H]1O[C@H](CO)[C@H](O)[C@H](OS(=O)(=O)O)[C@H]1O (stereo partly drawn) [compound 287, Sulfo-Lewis A] | 106 ± 60 | 0.095 ± 0.02 | 
CC(=O)N[C@H]1[C@@H](O[C@H]2[C@@H](O)[C@@H](CO)OC(O)[C@@H]2O[C@@H]2O[C@@H](C)[C@@H](O)[C@@H](O)[C@@H]2O)O[C@H](CO)[C@H](O)[C@@H]1O (stereo partly drawn) [compound 386, A blood group trisaccharide] | 1770 ± 190 | 5.56 ± 2.9 | Kd (CTL4): 49.3 ± 12.2 µM
CC(=O)N[C@H]1[C@H]([C@H](O)[C@H](O)CO)O[C@@](O[C@H]2[C@@H](O)[C@@H](CO)O[C@@H](O[C@H]3[C@H](O[C@@H]4O[C@@H](C)[C@@H](O)[C@@H](O)[C@@H]4O)[C@@H](NC(C)=O)C(O)O[C@@H]3CO)[C@@H]2O)(C(=O)O)C[C@@H]1O (stereo partly drawn) [compound 428, Sialyl-Lewis X] | 619 ± 100 | 3.81 ± 1 | 
C[C@@H]1O[C@@H](O[C@H]2C(O)O[C@H](CO)[C@H](O)[C@@H]2O)[C@@H](O)[C@H](O)[C@@H]1O (stereo partly drawn) [compound 479, H disaccharide] | 10400 ± 3260 | 26.6 ± 6.81 | 
CC(=O)N[C@H]1[C@H](O[C@H]2[C@@H](O)[C@@H](CO)O[C@@H](O[C@H]3[C@H](O)[C@@H](O)C(O)O[C@@H]3CO)[C@@H]2O)O[C@H](CO)[C@@H](O)[C@@H]1O[C@@H]1O[C@H](CO)[C@H](O)[C@H](O)[C@H]1O (stereo partly drawn) [compound 536, LNT] |  | 8.22 ± 1.71 | 
An. gambiae CTLMA2 (AGAP005334), chain of the CTL4/CTLMA2 heterodimer |  |  | percent of the purified product that is heterodimer [4]: the purified product is overwhelmingly (>95%) heterodimer
GlcNAcβ1-4Galβ1-4GlcNAcβ-sp2 [compound 251] |  |  | CTLMA2 (CTLMA2 [5]): 1.04 fold
Neu5Acα2-3(GalNAcβ1-4)Galβ1-4Glcβ-sp2 [compound 421] |  |  | CTL4/CTLMA2 (CTL4/CTLMA2 [3]): 1.94 fold
Neu5Acα2-3Galβ1-3GlcNAcβ1-3Galβ1-4Glcβ-sp4 [compound 536] |  |  | CTL4/CTLMA2 (CTL4/CTLMA2 [3]): 2.13 fold
asialo-GM1 [18B] |  |  | Kd (CTL4): 15.4 ± 3.99 µM
